By IC50 is commonly meant the concentration at which inhibition is half-maximal.

For the experiment, the target named is T1, 4-hydroxyphenylpyruvate dioxygenase (HPD) (Homo sapiens, UniProt P32754).
T1 construct: wild type human HPD (NM_002150.2), pET42b(+), expressed in E. coli C43 (DE3)
T1 sequence (P32754 2-393): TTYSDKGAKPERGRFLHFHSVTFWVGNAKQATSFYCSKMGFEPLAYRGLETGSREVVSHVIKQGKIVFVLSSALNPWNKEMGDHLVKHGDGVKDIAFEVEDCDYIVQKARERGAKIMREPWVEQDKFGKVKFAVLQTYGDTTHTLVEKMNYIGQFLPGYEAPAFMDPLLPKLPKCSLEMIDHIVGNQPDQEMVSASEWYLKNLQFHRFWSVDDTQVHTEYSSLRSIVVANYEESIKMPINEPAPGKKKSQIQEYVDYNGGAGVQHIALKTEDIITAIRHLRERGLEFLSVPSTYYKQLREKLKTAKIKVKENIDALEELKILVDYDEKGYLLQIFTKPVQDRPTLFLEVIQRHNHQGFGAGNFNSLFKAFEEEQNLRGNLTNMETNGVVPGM
In words: cell-based.
On to `CS(=O)(=O)c1ccc(C(=O)C2C(=O)CCCC2=O)c([N+](=O)[O-])c1` [mesotrione], for which half-maximal inhibition (IC50) was put at 396 ± 48 nM.

Regarding `CS(=O)(=O)c1ccc(C(=O)C2C(=O)CCCC2=O)c(Cl)c1` [sulcotrione], 187 ± 37 nM corresponded to half-maximal inhibition (IC50).

Turning to `CS(=O)(=O)c1ccc(C(=O)C2C(=O)CCCC2=O)c(Cl)c1COCC(F)(F)F` [tembotrione], the IC50 came to 610 ± 15 nM.

The values are drawn from article PMC6775094, “A robust bacterial assay for high-throughput screening of human 4-hydroxyphenylpyruvate dioxygenase inhibitors” (Scientific Reports, 2019).
